Measurements reported in patent publication US20040102360A1, “Combination therapy” (priority 2002, published 2004).

How the values were obtained:
[1] = tested on: MCF7 cells; test: Caspase 3 activation apoptosis assay in MCF7 cells; assay type: cell-based, human; conditions: co-treatment with Camptothecin, FIG. 3
Description: (§1) The herein disclosed inhibitors were evaluated as to the ability to increase cell death. Inhibitors of Akt and inhibitors of Akt and a protein kinase were assessed alone and in combination to determine the effect on caspase 3 activation.
(§2) Apoptosis Assay: Caspase 3 Activation
(§3) Cells were seeded in 96 well plates at concentrations ranging from 2×10^3 to 1×10^4 cells per well in their respective growth media. For anchorage independent assays (spheroids) cells were plated in 96 well plates that had been coated with poly-heme(poly 2-hydroxyethylmethacrylate [Sigma] 10 mg/ml in 95% ethanol). 72 hours later caspase 3 assays were set up as follows:
(§4) a. For standard combination assays, compounds were added at respective concentrations indicated and plates incubated at 37° C. in a CO2 incubator for 18 hours. For standard combination assays utilizing treatment with camptothecin, compounds and camptothecin were added at the same time at the respective concentrations indicated.
(§5) b. For combinations involving addition of the death receptor ligand TRAIL/Apo2L (Research Diagnostics) compounds were added for 1.5 hours prior to addition of TRAIL and plates incubated an additional 3 to 4 hours post TRAIL addition. In the case of the time course, plates were incubated for 2, 3, 4, 5, 6 and 7 hrs with Trail ligand before ending the assay. […]

[2] = tested on: Akt1, Akt2 and Akt3; test: Akt kinase assays (HTRF, GSK-derived biotinylated peptide substrate); assay type: biochemical, human; conditions: as characterised in the figure legends
Description: Activated AKT isoforms and pleckstrin homology domain deletion constructs were assayed utilizing a GSK-derived biotinylated peptide substrate. The extent of peptide phosphorylation was determined by Homogeneous Time Resolved Fluorescence (HTRF) using a lanthamide chelate (Lance)-coupled monoclonal antibody specific for the phosphopeptide in combination with a streptavidin-linked allophycocyanin (SA-APC) fluorophore which will bind to the biotin moiety on the peptide. When the Lance and APC are in proximity (i.e. bound to the same phosphopeptide molecule), a non-radiative energy transfer takes place from the Lance to the APC, followed by emission of light from APC at 665 nm.
The reaction is assembled by adding 16 TL of the ATP/MgCl2 working solution to the appropriate wells of a 96-well microtiter plate. Inhibitor or vehicle (1.0 Tl) is added followed by 10 Tl of peptide working solution. The reaction is started by adding 13 Tl of the enzyme working solution and mixing. The reaction is allowed to proceed for 50 min and then stopped by the addition of 60 Tl HTRF quench buffer. The stopped reactions were incubated at room temperature for at least 30 min and then read on the Discovery instrument.

[3] = tested on: LnCaP cells; test: Caspase 3 activation apoptosis assay in LnCaP cells; assay type: cell-based, human
Description: as §1, §2, §3, §4, §5

[4] = tested on: LnCaP/Akt3 cell line; test: Caspase 3 activation apoptosis assay in LnCaP/Akt3 cells; assay type: cell-based, human; conditions: FIG. 4 (b)
Description: as §1, §2, §3, §4, §5

[5] = tested on: MDA-MB468 cells; test: Caspase 3 activation apoptosis assay in MDA-MB468 cells; assay type: cell-based, human; conditions: FIG. 6 (a)
Description: as §1, §2, §3, §4, §5

Compound	fold increase in Caspase 3 activation over Camptothecin alone [1] [fold]	Akt isoform selectivity [2]	fold increase in Caspase 3 activation over Trail alone ([3]; + TRAIL ligand, FIG. 1) [fold]	Caspase 3 activity in the presence of Trail [4]	Caspase 3 activity in the presence of Trail [5]	Caspase 3 activity in the presence of Trail ([3]; FIG. 4 (a))
O=c1[nH]c2ccccc2n1C1CCN(Cc2ccc(-c3nc4cc5nc[nH]c5cc4nc3-c3ccccc3)cc2)CC1 [Compound 12-5, 1-{1-[4-(7-Phenyl-1H-imidazo[4,5-g]quinoxalin-6-yl)benzyl]piperidin-4-yl}-1,3-dihydro-2H-benzimidazol-2-one]	5.8	selective Akt1 and Akt2 inhibitor	–	–	–	–
NC(=O)c1[nH]c2ccc(Br)cc2c1S(=O)(=O)N1CCOCC1 [Compound A]	8.7	–	1.2	–	–	–
CN(C)CC(C)(C)CNc1nn2c(-c3ccccc3)nnc2cc1C1CCC1 [Compound 1, N′-(7-Cyclobutyl-3-phenyl-[1,2,4]triazolo[4,3-b]pyridazin-6-yl)-2,2,N,N-tetramethyl-propane-1,3-diamine]	–	selective Akt1 inhibitor	–	increase in Caspase 3 activity	increase in Caspase 3 activity	increase in Caspase 3 activity
